Several values for one entry are separate records, joined by “and”; a condition that tells them apart may be missing. Equal entries are not always repeated.
Biological target: T1, human kinase Mps-1 (Homo sapiens, UniProt P33981)
T1 construct: N-terminally GST-tagged human full length recombinant Mps-1 kinase; GST (N); purchased Invitrogen, Karslruhe, Germany PV4071
T1 sequence (P33981 1-857): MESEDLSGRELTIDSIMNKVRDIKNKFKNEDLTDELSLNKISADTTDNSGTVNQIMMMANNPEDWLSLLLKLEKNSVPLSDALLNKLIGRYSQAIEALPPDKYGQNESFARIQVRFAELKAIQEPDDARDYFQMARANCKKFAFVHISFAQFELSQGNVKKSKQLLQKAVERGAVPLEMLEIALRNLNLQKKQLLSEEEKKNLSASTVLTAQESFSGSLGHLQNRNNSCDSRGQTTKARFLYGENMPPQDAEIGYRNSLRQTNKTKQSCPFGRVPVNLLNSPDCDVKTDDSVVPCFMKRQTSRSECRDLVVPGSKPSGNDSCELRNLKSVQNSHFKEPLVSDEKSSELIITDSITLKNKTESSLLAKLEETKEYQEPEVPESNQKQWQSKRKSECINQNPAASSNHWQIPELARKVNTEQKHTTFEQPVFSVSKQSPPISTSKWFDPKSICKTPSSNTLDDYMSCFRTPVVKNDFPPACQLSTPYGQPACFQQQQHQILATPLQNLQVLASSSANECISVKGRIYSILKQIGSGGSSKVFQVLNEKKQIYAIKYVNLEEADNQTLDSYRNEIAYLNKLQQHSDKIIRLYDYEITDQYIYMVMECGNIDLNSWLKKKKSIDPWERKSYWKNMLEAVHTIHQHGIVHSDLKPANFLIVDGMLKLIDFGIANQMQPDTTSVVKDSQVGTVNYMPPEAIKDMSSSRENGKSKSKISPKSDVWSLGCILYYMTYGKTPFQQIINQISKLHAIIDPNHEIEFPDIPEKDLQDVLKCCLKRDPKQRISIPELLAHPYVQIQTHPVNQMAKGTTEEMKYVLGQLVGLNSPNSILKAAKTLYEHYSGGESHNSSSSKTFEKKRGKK
Assay: Mps-1 kinase assay (TR-FRET)
Assay type: biochemical
Conditions: Mps-1 TR-FRET kinase assay; avg; read-out: Mps1 avg (IC50 [mol/l])
Method in brief: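 Inhibition normalised between uninhibited reaction (0%) and enzyme-free wells (100%), using the blank-corrected TR-FRET 665/620 nm ratio after EDTA stop. Reaction: ~0.5 nM GST-Mps-1 full length, 10 μM ATP, 1 μM biotin-peptide, 60 min at 22 °C, after 15 min compound pre-binding, pH 7.7.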

Cc1nsc(Nc2cnc(C(F)(F)F)cn2)c1C(=O)Nc1cccc(S(C)(=O)=O)c1 [Example 195, 3-methyl-N-[3-(methylsulfonyl)phenyl]-5-{[5-(trifluoromethyl)pyrazin-2-yl]amino}-1,2-thiazole-4-carboxamide]
IC50: > 20 µM

Cc1nsc(Nc2cncc(C(F)(F)F)n2)c1C(=O)Nc1ccc(OCCN)nc1 [Example 196, N-[6-(2-aminoethoxy)pyridin-3-yl]-3-methyl-5-{[6-(trifluoromethyl)pyrazin-2-yl]amino}-1,2-thiazole-4-carboxamide]
IC50: > 20 µM

Cc1nsc(Nc2cnc(C(F)(F)F)cn2)c1C(=O)Nc1ccc(OCCN)nc1 [Example 197, N-[6-(2-aminoethoxy)pyridin-3-yl]-3-methyl-5-{[5-(trifluoromethyl)pyrazin-2-yl]amino}-1,2-thiazole-4-carboxamide]
IC50: > 20 µM

Cc1nsc(Nc2cnc3ccccc3n2)c1C(=O)Nc1ccc(OCCC(=O)OC(C)(C)C)nc1 [Example 198, tert-butyl 3-{[5-({[3-methyl-5-(quinoxalin-2-ylamino)-1,2-thiazol-4-yl]carbonyl}amino)pyridin-2-yl]oxy}propanoate]
IC50: 4.6 µM

Cc1nsc(Nc2ccc(C#N)cn2)c1C(=O)Nc1ccc(OCCC(=O)OC(C)(C)C)nc1 [Example 199, tert-butyl 3-({5-[({5-[(5-cyanopyridin-2-yl)amino]-3-methyl-1,2-thiazol-4-yl}carbonyl)amino]pyridin-2-yl}oxy)propanoate]
IC50: > 20 µM

Cc1nsc(Nc2cc(C#N)ccn2)c1C(=O)Nc1ccc(OCCC(=O)OC(C)(C)C)nc1 [Example 200, tert-butyl 3-({5-[({5-[(4-cyanopyridin-2-yl)amino]-3-methyl-1,2-thiazol-4-yl}carbonyl)amino]pyridin-2-yl}oxy)propanoate]
IC50: > 20 µM

Cc1nsc(Nc2cnc3ccccc3n2)c1C(=O)Nc1ccc(C(N)=O)c(F)c1 [Example 201, N-(4-carbamoyl-3-fluorophenyl)-3-methyl-5-(quinoxalin-2-ylamino)-1,2-thiazole-4-carboxamide]
IC50: > 20 µM

Cc1nsc(Nc2cnc3ccccc3n2)c1C(=O)Nc1ccc(F)c(C(N)=O)c1 [Example 202, N-(3-carbamoyl-4-fluorophenyl)-3-methyl-5-(quinoxalin-2-ylamino)-1,2-thiazole-4-carboxamide]
IC50: 5.8 µM

Cc1nsc(Nc2ccc(C#N)cn2)c1C(=O)Nc1ccc(F)c(C(N)=O)c1 [Example 203, N-(3-carbamoyl-4-fluorophenyl)-5-[(5-cyanopyridin-2-yl)amino]-3-methyl-1,2-thiazole-4-carboxamide]
IC50: > 20 µM

Cc1nsc(Nc2cncc(C(F)(F)F)n2)c1C(=O)Nc1ccc(F)c(C(N)=O)c1 [Example 204, N-(3-carbamoyl-4-fluorophenyl)-3-methyl-5-{[6-(trifluoromethyl)pyrazin-2-yl]amino}-1,2-thiazole-4-carboxamide]
IC50: 17 µM

CC(=O)Nc1cc(NC(=O)c2c(C)nsc2Nc2cnccn2)ccc1F [Example 205, N-(3-acetamido-4-fluorophenyl)-3-methyl-5-(pyrazin-2-ylamino)-1,2-thiazole-4-carboxamide]
IC50: > 20 µM

CC(=O)Nc1cc(NC(=O)c2c(C)nsc2Nc2cnc(C(F)(F)F)cn2)ccc1F [Example 206, N-(3-acetamido-4-fluorophenyl)-3-methyl-5-{[5-(trifluoromethyl)pyrazin-2-yl]amino}-1,2-thiazole-4-carboxamide]
IC50: > 20 µM

CNC(=O)c1ccc(NC(=O)c2c(C)nsc2Nc2cnc3ccccc3n2)cc1F [Example 207, N-[3-fluoro-4-(methylcarbamoyl)phenyl]-3-methyl-5-(quinoxalin-2-ylamino)-1,2-thiazole-4-carboxamide]
IC50: > 20 µM

CNC(=O)c1ccc(NC(=O)c2c(C)nsc2Nc2ccc(C#N)cn2)cc1F [Example 208, 5-[(5-cyanopyridin-2-yl)amino]-N-[3-fluoro-4-(methylcarbamoyl)phenyl]-3-methyl-1,2-thiazole-4-carboxamide]
IC50: > 20 µM

Cc1nsc(Nc2cncc(C(F)(F)F)n2)c1C(=O)Nc1ccc(OCCCN)nc1 [Example 209, N-[6-(3-aminopropoxy)pyridin-3-yl]-3-methyl-5-{[6-(trifluoromethyl)pyrazin-2-yl]amino}-1,2-thiazole-4-carboxamide]
IC50: > 20 µM

CNS(=O)(=O)c1ccc(NC(=O)c2c(C)nsc2Nc2cc(C#N)ccn2)cc1 [Example 210, 5-[(4-cyanopyridin-2-yl)amino]-3-methyl-N-[4-(methylsulfamoyl)phenyl]-1,2-thiazole-4-carboxamide]
IC50: > 20 µM

CNS(=O)(=O)c1ccc(NC(=O)c2c(C)nsc2Nc2cncc(C(F)(F)F)n2)cc1 [Example 211, 3-methyl-N-[4-(methylsulfamoyl)phenyl]-5-{[6-(trifluoromethyl)pyrazin-2-yl]amino}-1,2-thiazole-4-carboxamide]
IC50: > 20 µM and 19 µM

CNS(=O)(=O)c1ccc(NC(=O)c2c(C)nsc2Nc2cnc(C(F)(F)F)cn2)cc1 [Example 212, 3-methyl-N-[4-(methylsulfamoyl)phenyl]-5-{[5-(trifluoromethyl)pyrazin-2-yl]amino}-1,2-thiazole-4-carboxamide]
IC50: > 20 µM

Cc1nsc(Nc2cnc(C(F)(F)F)cn2)c1C(=O)Nc1ccc(C(=O)NCCN2CCCC(F)C2)cc1 (stereo not shown) [Example 213, N-(4-{[2-(3-fluoropiperidin-1-yl)ethyl]carbamoyl}phenyl)-3-methyl-5-{[5-(trifluoromethyl)pyrazin-2-yl]amino}-1,2-thiazole-4-carboxamide]
IC50: > 20 µM

Cc1nsc(Nc2cncc(C(F)(F)F)n2)c1C(=O)Nc1ccc(C(=O)NCCN2CCCC(F)(F)C2)cc1 [Example 214, N-(4-{[2-(3,3-difluoropiperidin-1-yl)ethyl]carbamoyl}phenyl)-3-methyl-5-{[6-(trifluoromethyl)pyrazin-2-yl]amino}-1,2-thiazole-4-carboxamide]
IC50: > 20 µM

Cc1nsc(Nc2cnc(C(F)(F)F)cn2)c1C(=O)Nc1ccc(OCCNC(=O)OC(C)(C)C)c(F)c1 [Example 215, tert-butyl [2-(2-fluoro-4-{[(3-methyl-5-{[5-(trifluoromethyl)pyrazin-2-yl]amino}-1,2-thiazol-4-yl)carbonyl]amino}phenoxy)ethyl]carbamate]
IC50: > 20 µM

Cc1nsc(Nc2cncc(C(F)(F)F)n2)c1C(=O)Nc1ccc(OCCNC(=O)OC(C)(C)C)c(F)c1 [Example 216, tert-butyl [2-(2-fluoro-4-{[(3-methyl-5-{[6-(trifluoromethyl)pyrazin-2-yl]amino}-1,2-thiazol-4-yl)carbonyl]amino}phenoxy)ethyl]carbamate]
IC50: > 20 µM

Cc1nsc(Nc2cnc(C(F)(F)F)cn2)c1C(=O)Nc1ccc(OC2CCN(C(=O)OC(C)(C)C)CC2)c(F)c1 [Example 217, tert-butyl 4-(2-fluoro-4-{[(3-methyl-5-{[5-(trifluoromethyl)pyrazin-2-yl]amino}-1,2-thiazol-4-yl)carbonyl]amino}phenoxy)piperidine-1-carboxylate]
IC50: > 20 µM

Cc1nsc(Nc2cncc(C(F)(F)F)n2)c1C(=O)Nc1ccc(OC2CCN(C(C)C)CC2)nc1 [Example 218, N-{6-[(1-isopropylpiperidin-4-yl)oxy]pyridin-3-yl}-3-methyl-5-{[6-(trifluoromethyl)pyrazin-2-yl]amino}-1,2-thiazole-4-carboxamide]
IC50: > 20 µM

Cc1nsc(Nc2cncc(C(F)(F)F)n2)c1C(=O)Nc1ccc(OC2CCN(C)CC2)nc1 [Example 219, 3-methyl-N-{6-[(1-methylpiperidin-4-yl)oxy]pyridin-3-yl}-5-{[6-(trifluoromethyl)pyrazin-2-yl]amino}-1,2-thiazole-4-carboxamide]
IC50: > 20 µM

Cc1nsc(Nc2cnc(C(F)(F)F)cn2)c1C(=O)Nc1ccc(OC2CCN(C)CC2)nc1 [Example 220, 3-methyl-N-{6-[(1-methylpiperidin-4-yl)oxy]pyridin-3-yl}-5-{[5-(trifluoromethyl)pyrazin-2-yl]amino}-1,2-thiazole-4-carboxamide]
IC50: > 20 µM

Cc1nsc(Nc2cnc(C(F)(F)F)cn2)c1C(=O)Nc1ccc(OCCN)c(F)c1 [Example 221, 3-N-[4-(2-aminoethoxy)-3-fluorophenyl]-3-methyl-5-{[5-(trifluoromethyl)pyrazin-2-yl]amino}-1,2-thiazole-4-carboxamide]
IC50: > 20 µM

Cc1nsc(Nc2cncc(C(F)(F)F)n2)c1C(=O)Nc1ccc(C(=O)NC2CCN(C(=O)OC(C)(C)C)CC2)cc1 [Example 222, tert-butyl 4-[(4-{[(3-methyl-5-{[6-(trifluoromethyl)pyrazin-2-yl]amino}-1,2-thiazol-4-yl)carbonyl]amino}benzoyl)amino] piperidine-1-carboxylate]
IC50: > 20 µM

— US20170334899A1, “AMINO-SUBSTITUTED ISOTHIAZOLES” (Bayer Pharma Aktiengesellschaft, priority 2014, published 2017)
